Data as given in patent US20250129430A1, “HIGH ATP-AFFINITY PROTEIN AS THERAPEUTIC TARGET FOR INTRACTABLE CANCER MOLECULAR SUBTYPES AND INHIBITOR THEREOF” (VeraVerse Co., Ltd., priority 2021, published 2025).

Experiments:
Test in all cases: Cell viability drug screen, 12-point dose-response AUC
Type in all cases: cell-based, human
FU97 = system: FU97; parameters: Average Area Under the Viability Curve (AUC), AUC norm value: scale not given here; settings: FU97 cells, 72 hours
How it was run: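 Trapezoidal AUC of a 12-point, DMSO-normalized dose-response curve. Luminescent viability was measured after 72 h of exposure at 37° C to half-log serial dilutions (0.5% DMSO control), dosed 24 h after plating FU97 cells at 5×10^3 per well.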

SNU1967 = SNU1967 cells, 72 hours
How it was run: (§1)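 Each cell line receives a twelve-point half-log titration of drug beginning 24 h after plating 5×10^3 cells per well. Following 72 h culture at 37 °C, luminescent signal is recorded and expressed versus vehicle. AUC is derived by the trapezoidal method.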

YCC11 = settings: 72 hours; for Average Area Under the Viability Curve (AUC), AUC norm value: YCC11 cells (SEM subtype)
How it was run: as §1

NCC19 = NCC19 cells, 72 hours
How it was run: as §1

Hs746T = settings: 72 hours; for Average Area Under the Viability Curve (AUC), AUC norm value: Hs746T cells (SEM subtype)
How it was run: as §1

SNU484 = settings: 72 hours; for Average Area Under the Viability Curve (AUC), AUC norm value: SNU484 cells (SEM subtype)
How it was run: as §1

SNU620 = SNU620 cells, 72 hours
How it was run: as §1

SNU1 = SNU1 cells, 72 hours
How it was run: as §1

SNU216 = settings: 72 hours; for Average Area Under the Viability Curve (AUC), AUC norm value: SNU216 cells (non-SEM subtype)
How it was run: (§2)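 Luminescent viability readings, taken 15 min after reagent addition at room temperature, were normalized to the 0.5% DMSO control to build 12-point dose-response curves. Trapezoidal integration gave the AUC. Cells had been plated at 5×10^3 per well and then exposed to half-log dilutions for 72 h.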

SNU719 = SNU719 cells, 72 hours
How it was run: as §2

SNU1750 = settings: 72 hours; for Average Area Under the Viability Curve (AUC), AUC norm value: SNU1750 cells (SEM subtype)
How it was run: as §1

SNU668 = settings: 72 hours; for Average Area Under the Viability Curve (AUC), AUC norm value: SNU668 cells (SEM subtype)
How it was run: as §1

OCUM1 = OCUM1 cells, 72 hours
How it was run: as §1

MKN45 = settings: 72 hours; for Average Area Under the Viability Curve (AUC), AUC norm value: MKN45 cells (non-SEM subtype)
How it was run: as §2

SNU638 = SNU638 cells, 72 hours
How it was run: as §1

SK4 = settings: 72 hours; for Average Area Under the Viability Curve (AUC), AUC norm value: SK4 cells (SEM subtype)
How it was run: as §1

MKN74 = MKN74 cells, 72 hours
How it was run: as §2

NCC59 = NCC59 cells, 72 hours
How it was run: as §1

MKN1 = MKN1 cells, 72 hours
How it was run: as §1

YCC2 = YCC2 cells, 72 hours
How it was run: as §1

KATO3 = KATO3 cells, 72 hours
How it was run: as §1

SNU16 = SNU16 cells, 72 hours
How it was run: as §1

AGS = settings: 72 hours; for Average Area Under the Viability Curve (AUC), AUC norm value: AGS cells (non-SEM subtype)
How it was run: as §2

MKN28 = MKN28 cells, 72 hours
How it was run: as §1

NCC20 = NCC20 cells, 72 hours
How it was run: as §1

YCC3 = YCC3 cells, 72 hours
How it was run: as §1

SNU601 = SNU601 cells, 72 hours
How it was run: as §1

NCC24 = NCC24 cells, 72 hours
How it was run: as §1

NCI_N87 = NCI_N87 cells, 72 hours
How it was run: as §1

With `Cc1ccc(C(=O)N(CCCN)[C@@H](c2oc3cc(Cl)ccc3c(=O)c2Cc2ccccc2)C(C)C)cc1` [SB 743921] the “area under the viability curve (AUC), normalized” value (shortened to “area … normalized”) (FU97; 12-point dose-response) was 0.8407, the “area … normalized” value (SNU1967; 12-point dose-response) was 0.8572 and the “area … normalized” value (YCC11; YCC11 cells, 12-point dose-response) was −1.353. For the same compound, the “area … normalized” value (NCC19; 12-point dose-response) was 1.296, the “area … normalized” value (Hs746T; Hs746T cells, 12-point dose-response) was 1.359 and the “area … normalized” value (SNU484; SNU484 cells, 12-point dose-response) was −1.3076. The “area … normalized” value (SNU620; 12-point dose-response) was −2.366, the “area … normalized” value (SNU1; 12-point dose-response) was −0.9587 and the “area … normalized” value (SNU216; SNU216 cells, 12-point dose-response) was 2.438. The “area … normalized” value (SNU719; 12-point dose-response) was 2.115, the “area … normalized” value (SNU1750; SNU1750 cells, 12-point dose-response) was 0.00014 and the “area … normalized” value (SNU668; SNU668 cells, 12-point dose-response) was 0. The “area … normalized” value (OCUM1; 12-point dose-response) was 1.653, the “area … normalized” value (MKN45; MKN45 cells, 12-point dose-response) was 2.818 and the “area … normalized” value (SNU638; 12-point dose-response) was −0.2572. For the same compound, the “area … normalized” value (SK4; SK4 cells, 12-point dose-response) was −0.9769, the “area … normalized” value (MKN74; 12-point dose-response) was 0.00599 and the “area … normalized” value (NCC59; 12-point dose-response) was 2.285. The “area … normalized” value (MKN1; 12-point dose-response) was −1.406, the “area … normalized” value (YCC2; 12-point dose-response) was 0.2048 and the “area … normalized” value (KATO3; 12-point dose-response) was 3.189. The “area … normalized” value (SNU16; 12-point dose-response) was −1.454, the “area … normalized” value (AGS; AGS cells, 12-point dose-response) was −2.366 and the “area … normalized” value (MKN28; 12-point dose-response) was −1.699. The “area … normalized” value (NCC20; 12-point dose-response) was −1.288, the “area … normalized” value (YCC3; 12-point dose-response) was 2.421 and the “area … normalized” value (SNU601; 12-point dose-response) was −1.703. The “area … normalized” value (NCC24; 12-point dose-response) was −2.238 and the “area … normalized” value (NCI_N87; 12-point dose-response) was −1.205.

With `CC[C@@H]1C(=O)N(C)c2cnc(Nc3ccc(C(=O)N[C@H]4CC[C@H](N5CCN(CC6CC6)CC5)CC4)cc3OC)nc2N1C(C)C` [BI6727 (Volasertib), Volasertib] the “Average Area Under the Viability Curve (AUC), AUC norm value” (“Average Area Under the Viability Curve” for short) (FU97) was 0.3078, the “Average Area Under the Viability Curve” value (SNU1967) was −0.1645 and the “Average Area Under the Viability Curve” value (YCC11) was −0.7997. For the same compound, the “Average Area Under the Viability Curve” value (NCC19) was 3.256, the “Average Area Under the Viability Curve” value (Hs746T) was 2.378 and the “Average Area Under the Viability Curve” value (SNU484) was −0.03282. For the same compound, the “Average Area Under the Viability Curve” value (SNU620) was −0.4098, the “Average Area Under the Viability Curve” value (SNU1) was −0.487 and the “Average Area Under the Viability Curve” value (SNU216) was 1.868. The “Average Area Under the Viability Curve” value (SNU719) was 3.74, the “Average Area Under the Viability Curve” value (SNU1750) was −0.5962 and the “Average Area Under the Viability Curve” value (SNU668) was 0.1516. For the same compound, the “Average Area Under the Viability Curve” value (OCUM1) was 2.405, the “Average Area Under the Viability Curve” value (MKN45) was 0.5875 and the “Average Area Under the Viability Curve” value (SNU638) was 0.3626. The “Average Area Under the Viability Curve” value (SK4) was −0.9263, the “Average Area Under the Viability Curve” value (MKN74) was −0.01134 and the “Average Area Under the Viability Curve” value (NCC59) was 3.198. For the same compound, the “Average Area Under the Viability Curve” value (MKN1) was −0.162, the “Average Area Under the Viability Curve” value (YCC2) was −0.09826 and the “Average Area Under the Viability Curve” value (KATO3) was 3.3921. For the same compound, the “Average Area Under the Viability Curve” value (SNU16) was 0, the “Average Area Under the Viability Curve” value (AGS) was −1.0975 and the “Average Area Under the Viability Curve” value (MKN28) was −1.335. For the same compound, the “Average Area Under the Viability Curve” value (NCC20) was 0.5594, the “Average Area Under the Viability Curve” value (YCC3) was 3.488 and the “Average Area Under the Viability Curve” value (SNU601) was 0.4757. The “Average Area Under the Viability Curve” value (NCC24) was −0.9502 and the “Average Area Under the Viability Curve” value (NCI_N87) was −0.3929.

`Cn1cc(CNCC2CCN(c3ncc(C(=O)NO)cn3)CC2)c2ccccc21` [JNJ-26481585] was tested, and the “Average Area Under the Viability Curve” value (FU97) was −0.6324, the “Average Area Under the Viability Curve” value (SNU1967) was −1.0365 and the “Average Area Under the Viability Curve” value (YCC11) was 0.08841. For the same compound, the “Average Area Under the Viability Curve” value (NCC19) was 0.3912, the “Average Area Under the Viability Curve” value (Hs746T) was 0.2906 and the “Average Area Under the Viability Curve” value (SNU484) was 0. For the same compound, the “Average Area Under the Viability Curve” value (SNU620) was −1.2467, the “Average Area Under the Viability Curve” value (SNU1) was −0.984 and the “Average Area Under the Viability Curve” value (SNU216) was 0.3424. The “Average Area Under the Viability Curve” value (SNU719) was 3.527, the “Average Area Under the Viability Curve” value (SNU1750) was −0.8596 and the “Average Area Under the Viability Curve” value (SNU668) was 1.486. The “Average Area Under the Viability Curve” value (OCUM1) was 0.02955, the “Average Area Under the Viability Curve” value (MKN45) was 2.743 and the “Average Area Under the Viability Curve” value (SNU638) was 0.1995. For the same compound, the “Average Area Under the Viability Curve” value (SK4) was −0.3258, the “Average Area Under the Viability Curve” value (MKN74) was −0.06428 and the “Average Area Under the Viability Curve” value (NCC59) was 3.687. The “Average Area Under the Viability Curve” value (MKN1) was 0.558, the “Average Area Under the Viability Curve” value (YCC2) was −0.1018 and the “Average Area Under the Viability Curve” value (KATO3) was 0.3482. For the same compound, the “Average Area Under the Viability Curve” value (SNU16) was −0.7883, the “Average Area Under the Viability Curve” value (AGS) was −1.073 and the “Average Area Under the Viability Curve” value (MKN28) was −0.5312. The “Average Area Under the Viability Curve” value (NCC20) was −1.396, the “Average Area Under the Viability Curve” value (YCC3) was 0.3561 and the “Average Area Under the Viability Curve” value (SNU601) was 1.501. The “Average Area Under the Viability Curve” value (NCC24) was −1.592 and the “Average Area Under the Viability Curve” value (NCI_N87) was −0.2649.
